Values quoted from earlier work in US20080314115A1, “Compliance Apparatus” (Zenics Limited, priority 2005, published 2008).

Settings: after disulfiram dose

## S=C=S [carbon disulphide]
  breath elimination half-life: 13.3 h
